The record followed here is patent US7129250B2, “Neuroprotective and anti-proliferative compounds” (Aegera Therapeutics Inc., priority 2000, dated 2006).

pIC50: −log10 of the molar value.

Data set [1] deals with CGNs. Briefly: Cisplatin Killing of CGNs. It counts as cell-based, CD1 mice. Particulars: for pIC50: assayed 48 hours after final drug treatment. How it is done:
Cisplatin has been used extensively in the treatment of various cancers. One dosblimiting side effect of this chemotherapeutic agent is related to hearing loss as a result of its toxicity to auditory neurons and loss of feeling in the extremities. Cisplatin induces apoptosis to both cultured CGN and cortical neurons.
CGNs were harvested from day 8/9 post-natal CD1 mice, plated on Poly-D-Lycine coated plates and incubated for 6 days at 37° C. under 5% CO2. The cells were treated with media containing drug and cisplatin […].

The test system of data set [2] is CGNs. Put plainly: High/Low Potassium (HK/LK) assay in CGNs. It is filed as cell-based. Particulars: HK/LK switch, drug 24 h pre-treatment, assayed 16 h after media change, concentration at which cell death was inhibited by 50%. As to the method: Cultured CGNs which are maintained in a medium containing 26 mM potassium (high K^+ or HK) undergo cell death when the medium is changed to one containing 5 mM potassium (low K^+ or LK). HK maintains the cells in a highly polarized state, duplicating that of fully innervated neurons. The switch to LK (5 mM is more representative of physiological conditions) results in depolarization of the cells, mimicking the loss of neuronal conductivity. […] As these killer genes are turned on by various types of neuronal insult as observed in AD, PD, and stroke, HK/LK is a general in vitro model for neuronal degradation, blanketing a wide range of neurodegenerative diseases. Compounds that protect against HK/LK in CGNs would therefore be efficacious in treatment and/or prevention of various neurodegenerative disease states.
CGNs were harvested from day 8/9 post-natal CD1 mice, plated on Poly-D-Lycine coated plates and incubated for 6 days at 37° C., with […] potassium, under 5% CO2. Pretreated cells were treated with drug 24 hours prior to changing the media to one containing […] potassium and drug. Cells were assayed 16 hours after the final media change using cell TITER96 (Promega).

Data set [3] concerns HIAP1 mRNA in LAN5 cells. Briefly: LAN5 HAIP1 Down Regulators (RNA levels). It counts as cell-based. As to conditions: HIAP1 RNA level vs control = 1.0; 24 hours drug. How it is done: LAN5 cells were grown in growth media. Cells were plated at cells 50,000 per well in 96 cells per 96 wells. Five days latter drug was added and the cells were liced 24 hours latter using RLT buffer.

Data set [4] has as its system CGNs. Put plainly: Ceramide Killing of CGNs. It counts as cell-based, CD1 mice. As to conditions: ceramide 100 uM. The source says:
Ceramide is a native […] found in most mammalian and human cells. The upregulation of endogenous ceramide has been linked to caspase 1 (ICE) induced apoptosis (Suzuki, A. et al. Exp. Cel. Res., 1997, 233, 41). In a similar fashion, the addition of ceramide to cultured CGNs results in caspase induced apoptosis, and is therefore considered an effective in vitro model for the various neurodegenerative diseases described above, which are characterized by caspase induced apoptosis, as observed in stroke models. Addition of selected compounds of the formula I through III, 24 hours prior to the addition of ceramide, to cultured CGNs provided protection against apoptosis, with 10 to 20% of the cells being saved at 1–10 μM drug concentrations (see Example 114).
CGNs were harvested from day 8/9 post-natal CD1 mice, plated on Poly-D-Lycine coated plates and incubated for 6 days at 37° C. under 5% CO2. Cells were pretreated with drug 24 hours prior to ceramide (100 uM) and drug addition.

In data set [5] the test system is SHSY-5Y cells. Briefly: Etoposide Killing of SHSY-5Y. It counts as cell-based. Particulars: etoposide 32 uM. As to the method:
SHSY-5Y cells were grown in growth media. Cells are placed at 50,000 cells per 96 well. Four days latter the cells were treated with drug for 48 hours prior to etoposide (32 uM) treatment. On day 6 media was changed to that containing etoposide and drug for 4 hours, at which point the media was changed to media containing drug only. Cells are allowed to survive overnight and then assessed for viability with metabolic activity measured (WST-1-Beohringer Mannheime), as shown in TABLE 13.

For data set [6], the system named is Jurkat cells. Briefly: Killing of cultured Jurkats with and without anti-Fas. It is filed as cell-based, Human. As to conditions: for Survival % With Anti-Fas: with anti-Fas (5 ng/mL). How it is done: Jurkats are a T-cell derived lymphoma cell line which expresses both FAS receptor and Fas-L. These cells, however, are only mildly sensitive to Fas-L/anti-Fas induced apoptosis. Select compounds were tested for their ability to kill Jurkats. Additionally, we investigated the ability of select compounds to sensitize the Jurkats to anti-Fas mediated apoptosis.
Human lymphoma jurkat cells were cultured in suspension in 24 well plates. Jurkat cell were treated with test compounds either alone or in the presence of suboptimal doses of anti-Fas antibody. After 18 hours of treatment cell death was assessed by Facs. Cells were incubated with propidium iodide and the percentage of cells that incorporated the stain was counted by Facs.

The term pIC50 denotes −log10 of the IC50, conventionally taken in molar units. Take `COc1ccc2c(ccn2C2=C(c3c[nH]c4ccccc34)C(=O)NC2=O)c1` [Compound 3, 3-(5-Methoxyindol-1-yl)-4-(1H-indol-3-yl)-1H-pyrrole-2,5-dione]: the pIC50 in data set [1] (Mus musculus) was 5.00.
As to `COc1ccc2c(c1)CC1c3[nH]c4ccccc4c3C3=C(C(=O)NC3=O)N21` (stereo not shown) [Compound 34], the negative-log IC50 (pIC50) in data set [2] and in data set [1] was 5.00 each time.
In the case of `COc1ccc2c(c1)cc1c3[nH]c4ccccc4c3c3c(n21)C(=O)NC3=O` [Compound 48], the pIC50 in data set [2] was 5.52; in data set [1], 5.00.
For `O=C1C=C(c2c[nH]c3ccc(Br)cc23)C(=O)N1` [Compound 56, 3-(1H-5-bromoindol-3-yl)-1H-pyrrole-2,5-dione], the “Fold Induction” value in data set [3] is reported as 0.31.
Same read-out and setting: under `O=C1C=C(c2cn(C(=O)c3ccccc3)c3ccc(Br)cc23)C(=O)N1` [Compound 59, 3-(N-benzoyl-5-bromoindol-3-yl)-1H-pyrrole-2,5-dione] stands 0.40.
`Cc1ccc(S(=O)(=O)n2cc(C3=CC(=O)NC3=O)c3cc(Br)ccc32)cc1` [Compound 60, 3-(N-(p-toluenesulfoiiyl)-5-bromoindol-3-yl)-1H-pyrrole-2,5-dione]: the negative logarithm of the IC50 (pIC50) in data set [2] was 5.00. Further, the “Fold Induction” value in data set [3] came to 0.13.
Regarding `O=C1C=C(c2cn(S(=O)(=O)c3cccc4ccccc34)c3ccc(Br)cc23)C(=O)N1` [Compound 61, 3-(N-(1-naphthylenesulfonyl)-5-bromoindol-3-yl)-1H-pyrrole-2,5-dione], the “% CGN Survival” value in data set [4] (drug 100 nM) is 0%; in data set [4] (drug 1 μM), 5.1%. The “Fold Induction” value in data set [3] amounted to 0.16.
In the case of `O=C1C=C(c2cn(S(=O)(=O)c3ccc4ccccc4c3)c3ccc(Br)cc23)C(=O)N1` [Compound 62, 3-(N-(2-naphthylenesulfonyl)-5-bromoindol-3-yl)-1H-pyrrole-2,5-dione], the “Fold Induction” value in data set [3] is on record as 0.18.
Same read-out and setting: the figure for `CN(C)c1cccc2c(S(=O)(=O)n3cc(C4=CC(=O)NC4=O)c4cc(Br)ccc43)cccc12` [Compound 63, 3-(N-dansyl-5-bromoindol-3-yl)-1H-pyrrole-2,5-dione] is 0.22.
Turning to `CC(C)(C)OC(=O)NCC(=O)n1cc(C2=CC(=O)NC2=O)c2cc(OCc3ccccc3)ccc21` [Compound 69, 3-(N-(N-Boc-2-aminoacetyl)-5-benzyloxyindol-3-yl)-1H-pyrrole-2,5-dione], the “% SHSY-5Y cell survival” value in data set [5] (drug 1 μM) amounted to 5.6%.
With `O=C1C=C(c2cn(S(=O)(=O)c3ccc([N+](=O)[O-])cc3)c3ccc(OCc4ccccc4)cc23)C(=O)N1` [Compound 71, 3-(N-(4-nitrobenzenesulfonyl)-5-benzyloxyindol-3-yl)-1H-pyrrole-2,5-dione], the “% SHSY-5Y cell survival” value in data set [5] (drug 10 μM) is listed as 26.4%.
As for `O=C1C=C(c2cn(Cc3ccc(F)cc3)c3ccc(OCc4ccccc4)cc23)C(=O)N1` [Compound 77, 3-(N-(4-fluorobenzyl)-5-benzyloxyindol-3-yl)-1H-pyrrole-2,5-dione], the pIC50 in data set [2] (Mus musculus) is 5.00.
`O=C1C=C(c2cn(S(=O)(=O)c3ccccc3[N+](=O)[O-])c3ccccc23)C(=O)N1` [Compound 95, 3-(N-(2-nitrobenzenesulfonyl)indol-3-yl)-1H-pyrrole-2,5-dione]: the negative logarithm of the IC50 (pIC50) in data set [2] (Mus musculus) was 5.00.
Still for that read-out and setting: the figure for `O=C1C=C(c2cn(S(=O)(=O)c3ccc([N+](=O)[O-])cc3)c3ccccc23)C(=O)N1` [Compound 96, 3-(N-(4-nitrobenzenesulfonyl)indol-3-yl)-1H-pyrrole-2,5-dione] is 5.00.
On to `N=C(N)SCCCn1c2ccccc2c2c3c(n4c5ccccc5cc4c21)C(=O)NC3=O` [Compound 145], for which, in data set [6] (compound dose 3 (μM)), the “Survival % With Anti-Fas” value was found to be 34.9% and the “Survival % Without Anti-Fas” value came to 92.44%. In addition, the “Survival % Without Anti-Fas” value in data set [6] (compound dose 10 (μM)) is given as 11%.
For `Cc1cn(C2=C(c3cn(CCCSC(=N)N)c4ccccc34)C(=O)NC2=O)c2ccccc12` [Compound 146], in data set [6] (compound dose 3 (μM)), the “Survival % With Anti-Fas” value worked out at 19.7% and the “Survival % Without Anti-Fas” value is reported as more than 90%. In addition, in data set [6] (compound dose 10 (μM)), the “Survival % Without Anti-Fas” value is reported as 0%.
The matching figures for `N=C(N)SCCCn1cc(C2=C(n3ccc4cc(OCc5ccccc5)ccc43)C(=O)NC2=O)c2ccccc21` [Compound 147]: 19.7%, more than 90% and 0%.
On to `N=C(N)SCCCn1cc(C2=C(n3ccc4ccccc43)C(=O)NC2=O)c2cc(OCc3ccccc3)ccc21` [Compound 148], for which the “Survival % Without Anti-Fas” value in data set [6] (compound dose 3 (μM)) is given as more than 90%; in data set [6] (compound dose 10 (μM)) it was 0%. Also, the “Survival % With Anti-Fas” value in data set [6] (compound dose 10 (μM)) is reported as 19.7%.
As to `Cc1cn(C2=C(c3cn(CCCSC(=N)N)c4ccc(OCc5ccccc5)cc34)C(=O)NC2=O)c2ccccc12` [Compound 149], in data set [6] (compound dose 3 (μM)), the “Survival % With Anti-Fas” value was 2.00% and the “Survival % Without Anti-Fas” value is more than 90%. Besides, the “Survival % Without Anti-Fas” value in data set [6] (compound dose 10 (μM)) was found to be 0%.
`Cc1cc2ccccc2n1C1=C(c2cn(CCCSC(=N)N)c3ccc(OCc4ccccc4)cc23)C(=O)NC1=O` [Compound 150]: in data set [6] (compound dose 3 (μM)), the “Survival % With Anti-Fas” value was 4.49% and the “Survival % Without Anti-Fas” value is reported as more than 90%. In addition, the “Survival % Without Anti-Fas” value in data set [6] (compound dose 10 (μM)) was 0%.
In the case of `N=C(N)SCCCn1cc(C2=C(N3CCc4ccccc43)C(=O)NC2=O)c2ccccc21` [Compound 159], in data set [6] (compound dose 3 (μM)), the “Survival % With Anti-Fas” value is on record as 9.48% and the “Survival % Without Anti-Fas” value was more than 90%. Further, in data set [6] (compound dose 10 (μM)), the “Survival % Without Anti-Fas” value was 17.38%.
As to `Cn1cc(C2=C(n3cc(CCCSC(=N)N)c4ccccc43)C(=O)NC2=O)c2ccccc21` [Compound 167], the “Survival % With Anti-Fas” value was 43.3% in data set [6] (compound dose 0.3 (μM)); 16.7% in data set [6] (compound dose 1 (μM)); 4.9% in data set [6] (compound dose 3 (μM)); 0% in data set [6] (compound dose 10 (μM)); 0% in data set [6] (compound dose 30 (μM)). Moreover, the “Survival % Without Anti-Fas” value in data set [6] (compound dose 0.3 (μM)) worked out at 97.7%; in data set [6] (compound dose 1 (μM)) it was 88.3%; in data set [6] (compound dose 3 (μM)), 50.3%; in data set [6] (compound dose 10 (μM)), 0%; in data set [6] (compound dose 30 (μM)) it was 0%.
`Cn1cc(C2=C(n3cc(CCCSC(=N)N)c4ccccc43)C(=O)NC2=O)c2cc(OCc3ccccc3)ccc21` [Compound 168]: the “Survival % With Anti-Fas” value in data set [6] (compound dose 0.3 (μM)) was 49.0%; in data set [6] (compound dose 1 (μM)), 48.6%; in data set [6] (compound dose 3 (μM)), 1%; in data set [6] (compound dose 10 (μM)) it was 0%; in data set [6] (compound dose 30 (μM)) it was 0%. The “Survival % Without Anti-Fas” value in data set [6] (compound dose 0.3 (μM)) was 90.7%; in data set [6] (compound dose 1 (μM)), 89.3%; in data set [6] (compound dose 3 (μM)) it was 46.1%; in data set [6] (compound dose 10 (μM)), 1.2%; in data set [6] (compound dose 30 (μM)) it was 0%.
On to `COc1ccc2[nH]cc(CCNC(C)=O)c2c1` [melatonin, Melatonin, reference compound], for which, in data set [1] (high doses), the “protection of CGNs” value is reported as “protect CGNs”.
